# Measured values taken from patent US9199946B2, “Pyrimidinone carboxamide inhibitors of endothelial lipase” (BRISTOL-MYERS SQUIBB COMPANY, priority 2012, dated 2015).
# Target: T1, Endothelial lipase (EL) (Homo sapiens, UniProt Q9Y5X9)
# T1 construct: HT-1080 cells, which were transformed by RAGE technology (Athersys) to overexpress endogenous EL; endogenous in cells; conditioned medium used as the enzyme source
# T1 sequence (Q9Y5X9 21-500): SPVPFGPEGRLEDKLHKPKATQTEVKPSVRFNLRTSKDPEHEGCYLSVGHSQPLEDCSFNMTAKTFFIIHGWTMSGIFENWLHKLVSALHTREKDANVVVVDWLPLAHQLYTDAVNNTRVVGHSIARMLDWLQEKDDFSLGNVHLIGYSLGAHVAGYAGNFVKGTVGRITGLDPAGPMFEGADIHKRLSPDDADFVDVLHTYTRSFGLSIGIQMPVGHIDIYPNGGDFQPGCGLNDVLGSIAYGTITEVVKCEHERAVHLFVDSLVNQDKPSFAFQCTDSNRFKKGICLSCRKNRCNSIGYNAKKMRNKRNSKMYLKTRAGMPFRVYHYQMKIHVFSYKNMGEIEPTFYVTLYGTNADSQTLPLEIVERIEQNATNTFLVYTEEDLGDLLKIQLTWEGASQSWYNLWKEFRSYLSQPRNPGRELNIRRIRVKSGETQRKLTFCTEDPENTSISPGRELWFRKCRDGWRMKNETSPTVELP
# Test: Endothelial lipase (EL) enzymatic assay with fluorescent substrate A10070 in DMPG vesicles
# Assay type: biochemical
# Details: conditioned media from HT-1080 cells overexpressing endogenous EL; 20 min preincubation at 37° C.; read-out: EL IC50
# How it was run: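 The enzyme source was conditioned medium from HT-1080 cells engineered to overexpress endogenous EL. It was preincubated with compound for 20 min at 37 °C in 50 mM HEPES pH 8.0, 50 mM NaCl, 1 mM CaCl2. Reactions started with DMPG vesicles carrying FRET substrate A10070 (mole fraction 0.05). The rate was taken from the linear slope of fluorescence (ex 488/em 530 nm) over 10 min.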
row,SMILES,IC50 [µM]
1,"Nc1c(C(=O)NC2CCC(c3cccc(OCc4ccccc4)c3)C2)[nH]c(=O)[nH]c1=O (stereo not drawn) [Example 158, 5-amino-N-(3-(3-(benzyloxy)phenyl)cyclopentyl)-2,6-dioxo-1,2,3,6-tetrahydropyrimidine-4-carboxamide]",0.525
2,"Nc1c(C(=O)N[C@@H]2CCCc3c(NS(=O)(=O)c4ccccc4)cccc32)[nH]c(=O)[nH]c1=O [Example 125, (R)-5-amino-2,6-dioxo-N-(5-(phenylsulfonamido)-1,2,3,4-tetrahydronaphthalen-1-yl)-1,2,3,6-tetrahydropyrimidine-4-carboxamide]",0.329
3,"CC1C(NC(=O)c2[nH]c(=O)[nH]c(=O)c2N)CC2(C(C)C)CC12 (stereo not drawn) [Example 57, 5-amino-N-(1-isopropyl-4-methylbicyclo[3.1.0]hexan-3-yl)2,6-dioxo-1,2,3,6-tetrahydropyrimidine-4-carboxamide]",4.89
4,"O=C(N[C@H]1CC[C@@H](c2ccccc2)CC1)c1[nH]c(=O)n(CC(F)(F)F)c(=O)c1O [Example 243, 5-hydroxy-2,6-dioxo-N-(cis-4-phenylcyclohexyl)-1-(2,2,2-trifluoroethyl)-1,2,3,6-tetrahydropyrimidine-4-carboxamide]",0.967
5,"Cn1nccc1-c1ccc([C@@H]2CC[C@H](NC(=O)c3[nH]c(=O)[nH]c(=O)c3N)C2)cc1 [Example 163, 5-amino-N-((1S,3R)-3-(4-(1-methyl-1H-pyrazol-5-yl)phenyl)cyclopentyl)-2,6-dioxo-1,2,3,6-tetrahydropyrimidine-4-carboxamide]",2.25

# Same assay, conditions: range observed in the EL assay; read-out: EL IC50 values
row,SMILES,IC50 [µM]
1,"Nc1c(C(=O)N[C@@H]2C[C@@H](c3ccccc3)c3ccccc32)[nH]c(=O)[nH]c1=O [Example 42, 5-amino-2,6-dioxo-N-((1R,3S)-3-phenyl-2,3-dihydro-1H-inden-1-yl)-1,2,3,6-tetrahydropyrimidine-4-carboxamide]",≤ 10
2,"O=C(N[C@H]1C[C@@H](c2ccccc2)c2ccccc21)c1[nH]c(=O)[nH]c(=O)c1O [Example 247, 5-hydroxy-2,6-dioxo-N-((1S,3S)-3-phenyl-2,3-dihydro-1H-inden-1-yl)-1,2,3,6-tetrahydropyrimidine-4-carboxamide]",≤ 10
3,"Nc1c(C(=O)N[C@@H]2CC[C@H](C(=O)Nc3ccccc3)C2)[nH]c(=O)[nH]c1=O [Example 130, 5-amino-2,6-dioxo-N-((1R,3S)-3-(phenylcarbamoyl)cyclopentyl)-1,2,3,6-tetrahydropyrimidine-4-carboxamide]",≤ 10
4,"COC(=O)[C@@H]1C[C@H](NC(=O)c2[nH]c(=O)[nH]c(=O)c2N)c2ccccc21 [Example 12, (1R,3S)-methyl 3-(5-amino-2,6-dioxo-1,2,3,6-tetrahydropyrimidine-4-carboxamido)-2,3-dihydro-1H-indene-1-carboxylate]",≤ 10
5,"O=C(N[C@@H]1CC[C@@H](C(=O)NCc2nc3ccccc3s2)C1)c1[nH]c(=O)[nH]c(=O)c1O [Example 296, N-((1R,3R)-3-(benzo[d]thiazol-2-ylmethylcarbamoyl)cyclopentyl)-5-hydroxy-2,6-dioxo-1,2,3,6-tetrahydropyrimidine-4-carboxamide]",≤ 10
6,"Cc1nn(C)c(C)c1-c1ccc([C@@H]2CC[C@H](NC(=O)c3[nH]c(=O)[nH]c(=O)c3N)C2)cc1 [Example 159, 5-amino-2,6-dioxo-N-((1S,3R)-3-(4-(1,3,5-trimethyl-1H-pyrazol-4-yl)phenyl)cyclopentyl)-1,2,3,6-tetrahydropyrimidine-4-carboxamide]",≤ 10
7,"Nc1c(C(=O)NC2CCCCC2C2CCCCC2)[nH]c(=O)[nH]c1=O (stereo not drawn) [Example 59, 5-amino-N-(bi(cyclohexan)-2-yl)-2,6-dioxo-1,2,3,6-tetrahydropyrimidine-4-carboxamide]",≤ 10
8,"Nc1c(C(=O)N[C@@H]2CCCc3c(NS(=O)(=O)c4ccccc4)cccc32)[nH]c(=O)[nH]c1=O [Example 125, (R)-5-amino-2,6-dioxo-N-(5-(phenylsulfonamido)-1,2,3,4-tetrahydronaphthalen-1-yl)-1,2,3,6-tetrahydropyrimidine-4-carboxamide]",≤ 10
9,"CC1C(NC(=O)c2[nH]c(=O)[nH]c(=O)c2N)CC2(C(C)C)CC12 (stereo not drawn) [Example 57, 5-amino-N-(1-isopropyl-4-methylbicyclo[3.1.0]hexan-3-yl)2,6-dioxo-1,2,3,6-tetrahydropyrimidine-4-carboxamide]",≤ 10
10,"Cn1c(C(=O)N[C@H]2CC[C@@H](c3ccccc3)CC2)c(O)c(=O)[nH]c1=O [Example 241, 5-Hydroxy-3-methyl-2,6-dioxo-N-(cis-4-phenylcyclohexyl)-1,2,3,6-tetrahydropyrimidine-4-carboxamide]",≤ 10
11,"Nc1c(C(=O)N[C@H]2CCCc3cc(OCC(F)(F)F)ccc32)[nH]c(=O)[nH]c1=O [Example 34, (S)-5-amino-2,6-dioxo-N-(6-(2,2,2-trifluoroethoxy)-1,2,3,4-tetrahydronaphthalen-1-yl)-1,2,3,6-tetrahydropyrimidine-4-carboxamide]",≤ 10
12,"Nc1c(C(=O)N[C@H]2CCCc3c(OCc4ccccc4)cccc32)[nH]c(=O)[nH]c1=O [Example 92, (S)-5-amino-N-(5-(benzyloxy)-1,2,3,4-tetrahydronaphthalen-1-yl)-2,6-dioxo-1,2,3,6-tetrahydropyrimidine-4-carboxamide]",≤ 10
13,"O=C(N[C@H]1CC[C@@H](c2ccccc2)CC1)c1[nH]c(=O)n(CC(F)(F)F)c(=O)c1O [Example 243, 5-hydroxy-2,6-dioxo-N-(cis-4-phenylcyclohexyl)-1-(2,2,2-trifluoroethyl)-1,2,3,6-tetrahydropyrimidine-4-carboxamide]",≤ 10
14,"Nc1c(C(=O)N[C@H]2CC[C@@H](c3cccc(C(F)(F)F)c3)CC2)[nH]c(=O)[nH]c1=O [Example 30, 5-amino-2,6-dioxo-N-(cis-4-(3-(trifluoromethyl)phenyl)cyclohexyl)-1,2,3,6-tetrahydropyrimidine-4-carboxamide]",≤ 10
15,"Nc1c(C(=O)N[C@H]2CCc3ccc(OCc4ccccc4)cc32)[nH]c(=O)[nH]c1=O [Example 90, (S)-5-amino-N-(6-(benzyloxy)-2,3-dihydro-1H-inden-1-yl)-2,6-dioxo-1,2,3,6-tetrahydropyrimidine-4-carboxamide]",≤ 10
16,"Nc1c(C(=O)N[C@H]2CC[C@H](C(=O)Nc3ccccc3)C2)[nH]c(=O)[nH]c1=O [Example 129, 5-amino-2,6-dioxo-N-((1S,3S)-3-(phenylcarbamoyl)cyclopentyl)-1,2,3,6-tetrahydropyrimidine-4-carboxamide]",≤ 10
17,"COc1ccc2c(c1)C(NC(=O)c1[nH]c(=O)[nH]c(=O)c1N)CC2 (stereo not drawn) [Example 11, 5-amino-N-(6-methoxy-2,3-dihydro-1H-inden-1-yl)-2,6-dioxo-1,2,3,6-tetrahydropyrimidine-4-carboxamide]",≤ 10
18,"O=C(N[C@@H]1CC[C@@H](C(=O)N[C@H]2CCCc3ccccc32)C1)c1[nH]c(=O)[nH]c(=O)c1O [Example 298, 5-hydroxy-2,6-dioxo-N-((1R,3R)-3-((S)-1,2,3,4-tetrahydronaphthalen-1-ylcarbamoyl)cyclopentyl)-1,2,3,6-tetrahydropyrimidine-4-carboxamide]",≤ 10
19,"CCOC(=O)N1CCC(NC(=O)c2[nH]c(=O)[nH]c(=O)c2N)c2ccccc21 (single isomer, unassigned; enantiomer b) [Example 193, Ethyl 4-(5-amino-2,6-dioxo-1,2,3,6-tetrahydropyrimidine-4-carboxamido)-3,4-dihydroquinoline-1(2H)-carboxylate (Enantiomer B)]",≤ 10
20,"Cn1nccc1-c1ccc([C@@H]2CC[C@H](NC(=O)c3[nH]c(=O)[nH]c(=O)c3N)C2)cc1 [Example 163, 5-amino-N-((1S,3R)-3-(4-(1-methyl-1H-pyrazol-5-yl)phenyl)cyclopentyl)-2,6-dioxo-1,2,3,6-tetrahydropyrimidine-4-carboxamide]",≤ 10
21,"O=C(N[C@@H]1CCc2cc(O)ccc21)c1[nH]c(=O)[nH]c(=O)c1O [Example 262, (R)-5-hydroxy-N-(5-hydroxy-2,3-dihydro-1H-inden-1-yl)-2,6-dioxo-1,2,3,6-tetrahydropyrimidine-4-carboxamide]",≤ 10
22,"Nc1c(C(=O)NC2CCC(n3cc(-c4ccc(Br)cc4)cn3)C2)[nH]c(=O)[nH]c1=O (stereo not drawn) [Example 140, 5-amino-N-(3-(4-(4-bromophenyl)-1H-pyrazol-1-yl)cyclopentyl)-2,6-dioxo-1,2,3,6-tetrahydropyrimidine-4-carboxamide]",≤ 10
